ChEMBL document CHEMBL4649994
Values joined by “and” are separate entries in the source; they are usually repeats but may differ in a detail not shown here. Identical values can stand only once.

Assays:
Conditions in all cases: Compound concentration 10.0 uM, Protein concentration 2.0 uM
[1] = target: Bromodomain-containing protein 3 (Homo sapiens) (UniProt Q15059); assay: Thermal Shift Assay. Domain start/stop: P24-E144
[2] = target: Protein polybromo-1 (Homo sapiens) (UniProt Q86U86); assay: Thermal Shift Assay. Domain start/stop: H23-D159
[3] = target: Protein polybromo-1 (Homo sapiens) (UniProt Q86U86); assay: Thermal Shift Assay. Domain start/stop: R487-D598
[4] = target: Tripartite motif-containing protein 66 (Homo sapiens) (UniProt O15016); assay: Thermal Shift Assay. Domain start/stop: M1091-S1218
[5] = target: Histone-lysine N-methyltransferase ASH1L (Homo sapiens) (UniProt Q9NR48)
[6] = target: ATPase family AAA domain-containing protein 2 (Homo sapiens) (UniProt Q6PL18)
[7] = target: ATPase family AAA domain-containing protein 2B (Homo sapiens) (UniProt Q9ULI0)
[8] = target: Bromodomain adjacent to zinc finger domain protein 1A (Homo sapiens) (UniProt Q9NRL2)
[9] = target: Bromodomain adjacent to zinc finger domain protein 2A (Homo sapiens) (UniProt Q9UIF9)
[10] = target: Bromodomain adjacent to zinc finger domain protein 2B (Homo sapiens) (UniProt Q9UIF8)
[11] = target: Nucleosome-remodeling factor subunit BPTF (Homo sapiens) (UniProt Q12830)
[12] = target: Bromodomain-containing protein 1 (Homo sapiens) (UniProt O95696)
[13] = target: Bromodomain-containing protein 2 (Homo sapiens) (UniProt P25440)
[14] = target: Bromodomain-containing protein 2 (Homo sapiens) (UniProt P25440); remark: listed apart in the source
[15] = target: Bromodomain-containing protein 3 (Homo sapiens) (UniProt Q15059)
[16] = target: Bromodomain-containing protein 9 (Homo sapiens) (UniProt Q9H8M2)
[17] = target: Bromodomain testis-specific protein (Homo sapiens) (UniProt Q58F21)
[18] = target: Peregrin (Homo sapiens) (UniProt P55201)
[19] = target: Bromodomain and PHD finger-containing protein 3 (Homo sapiens) (UniProt Q9ULD4)
[20] = target: Bromodomain and WD repeat-containing protein 3 (Homo sapiens) (UniProt Q6RI45)
[21] = target: Chromatin remodeling regulator CECR2 (Homo sapiens) (UniProt Q9BXF3)
[22] = target: CREB-binding protein (Homo sapiens) (UniProt Q92793)
[23] = target: Histone acetyltransferase p300 (Homo sapiens) (UniProt Q09472)
[24] = target: Histone acetyltransferase KAT2A (Homo sapiens) (UniProt Q92830)
[25] = target: Histone acetyltransferase KAT2B (Homo sapiens) (UniProt Q92831)
[26] = target: Protein polybromo-1 (Homo sapiens) (UniProt Q86U86)
[27] = target: Protein polybromo-1 (Homo sapiens) (UniProt Q86U86); remark: listed apart in the source
[28] = target: Protein polybromo-1 (Homo sapiens) (UniProt Q86U86); remark: listed apart in the source
[29] = target: Protein polybromo-1 (Homo sapiens) (UniProt Q86U86); remark: listed apart in the source
[30] = target: PH-interacting protein (Homo sapiens) (UniProt Q8WWQ0)
[31] = target: SWI/SNF-related matrix-associated actin-dependent regulator of chromatin subfamily A member 2 (Homo sapiens) (UniProt P51531)
[32] = target: SWI/SNF-related matrix-associated actin-dependent regulator of chromatin subfamily A member 4 (Homo sapiens) (UniProt P51532)
[33] = target: Nuclear body protein SP140 (Homo sapiens) (UniProt Q13342)
[34] = target: Nuclear body protein SP140-like protein (Homo sapiens) (UniProt Q9H930)
[35] = target: Transcription initiation factor TFIID subunit 1 (Homo sapiens) (UniProt P21675)
[36] = target: Transcription initiation factor TFIID subunit 1 (Homo sapiens) (UniProt P21675); remark: listed apart in the source
[37] = target: Transcription initiation factor TFIID subunit 1-like (Homo sapiens) (UniProt Q8IZX4)
[38] = target: Transcription initiation factor TFIID subunit 1-like (Homo sapiens) (UniProt Q8IZX4); remark: listed apart in the source
[39] = target: Transcription intermediary factor 1-alpha (Homo sapiens) (UniProt O15164)
[40] = target: Transcription intermediary factor 1-beta (Homo sapiens) (UniProt Q13263)
[41] = target: Peregrin (Homo sapiens) (UniProt P55201); remark: listed apart in the source

Sequence of Protein polybromo-1 (Homo sapiens) (Q86U86 whole entry): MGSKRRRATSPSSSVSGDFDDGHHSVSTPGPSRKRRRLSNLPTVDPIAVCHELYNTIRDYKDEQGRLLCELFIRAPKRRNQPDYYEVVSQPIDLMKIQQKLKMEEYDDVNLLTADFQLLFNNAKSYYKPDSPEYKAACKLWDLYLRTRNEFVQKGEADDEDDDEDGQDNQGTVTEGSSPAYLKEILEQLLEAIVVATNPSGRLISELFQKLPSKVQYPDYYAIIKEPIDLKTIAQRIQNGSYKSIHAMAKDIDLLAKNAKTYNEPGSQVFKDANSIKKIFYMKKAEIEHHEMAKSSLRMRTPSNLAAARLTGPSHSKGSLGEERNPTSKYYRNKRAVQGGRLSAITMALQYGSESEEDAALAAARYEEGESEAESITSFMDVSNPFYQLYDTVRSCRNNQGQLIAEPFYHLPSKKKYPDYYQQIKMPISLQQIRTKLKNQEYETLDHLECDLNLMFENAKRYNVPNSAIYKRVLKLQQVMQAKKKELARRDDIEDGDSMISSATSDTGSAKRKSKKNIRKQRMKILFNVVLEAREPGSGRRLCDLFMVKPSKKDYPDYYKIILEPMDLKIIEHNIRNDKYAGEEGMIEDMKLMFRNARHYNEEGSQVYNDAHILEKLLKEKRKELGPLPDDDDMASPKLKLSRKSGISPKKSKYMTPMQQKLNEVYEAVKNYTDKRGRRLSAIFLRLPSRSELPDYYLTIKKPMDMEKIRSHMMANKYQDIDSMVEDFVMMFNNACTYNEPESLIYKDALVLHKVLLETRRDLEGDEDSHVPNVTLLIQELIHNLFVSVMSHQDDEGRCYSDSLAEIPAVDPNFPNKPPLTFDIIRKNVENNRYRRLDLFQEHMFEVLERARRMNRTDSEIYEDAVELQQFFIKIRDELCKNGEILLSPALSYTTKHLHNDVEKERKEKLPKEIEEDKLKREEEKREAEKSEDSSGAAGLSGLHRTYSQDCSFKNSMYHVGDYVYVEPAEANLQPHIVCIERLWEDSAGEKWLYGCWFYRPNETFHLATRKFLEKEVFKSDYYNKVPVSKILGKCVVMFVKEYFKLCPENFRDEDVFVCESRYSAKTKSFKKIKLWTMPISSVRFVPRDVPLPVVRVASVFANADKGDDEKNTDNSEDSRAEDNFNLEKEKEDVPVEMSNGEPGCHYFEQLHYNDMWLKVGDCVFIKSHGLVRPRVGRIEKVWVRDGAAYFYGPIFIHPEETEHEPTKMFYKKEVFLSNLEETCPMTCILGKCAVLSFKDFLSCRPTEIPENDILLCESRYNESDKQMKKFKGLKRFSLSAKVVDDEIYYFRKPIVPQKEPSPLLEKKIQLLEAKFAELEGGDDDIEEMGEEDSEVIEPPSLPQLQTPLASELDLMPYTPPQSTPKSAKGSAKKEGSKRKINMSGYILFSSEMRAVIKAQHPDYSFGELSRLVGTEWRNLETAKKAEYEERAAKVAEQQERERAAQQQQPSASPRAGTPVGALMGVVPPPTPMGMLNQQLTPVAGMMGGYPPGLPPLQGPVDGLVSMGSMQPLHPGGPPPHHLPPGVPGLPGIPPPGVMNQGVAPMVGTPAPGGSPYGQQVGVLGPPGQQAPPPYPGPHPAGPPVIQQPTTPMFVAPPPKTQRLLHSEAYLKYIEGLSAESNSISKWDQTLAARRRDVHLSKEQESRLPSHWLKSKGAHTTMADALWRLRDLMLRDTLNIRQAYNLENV
Sequence of Bromodomain-containing protein 3 (Homo sapiens) (Q15059 2-726 limits assumed): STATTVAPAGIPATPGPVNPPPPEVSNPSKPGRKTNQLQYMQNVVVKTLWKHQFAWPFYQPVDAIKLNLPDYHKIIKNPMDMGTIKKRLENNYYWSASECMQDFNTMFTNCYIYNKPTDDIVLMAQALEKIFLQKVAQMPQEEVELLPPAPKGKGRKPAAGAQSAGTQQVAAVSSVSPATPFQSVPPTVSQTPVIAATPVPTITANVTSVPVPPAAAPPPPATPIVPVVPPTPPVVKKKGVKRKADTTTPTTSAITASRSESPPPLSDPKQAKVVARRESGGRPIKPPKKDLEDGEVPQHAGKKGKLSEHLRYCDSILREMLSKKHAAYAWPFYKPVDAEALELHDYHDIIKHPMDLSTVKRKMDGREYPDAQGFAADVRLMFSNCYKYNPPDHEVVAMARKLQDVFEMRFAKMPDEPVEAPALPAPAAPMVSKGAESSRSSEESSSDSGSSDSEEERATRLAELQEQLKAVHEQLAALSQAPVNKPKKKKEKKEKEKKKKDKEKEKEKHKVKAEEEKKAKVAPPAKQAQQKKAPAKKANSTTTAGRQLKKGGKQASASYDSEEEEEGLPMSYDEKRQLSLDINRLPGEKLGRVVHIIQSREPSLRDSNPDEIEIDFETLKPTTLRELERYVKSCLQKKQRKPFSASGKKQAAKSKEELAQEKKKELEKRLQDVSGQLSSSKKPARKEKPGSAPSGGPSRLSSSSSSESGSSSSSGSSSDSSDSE
Sequence of Bromodomain-containing protein 2 (Homo sapiens) (P25440 whole entry, looked up): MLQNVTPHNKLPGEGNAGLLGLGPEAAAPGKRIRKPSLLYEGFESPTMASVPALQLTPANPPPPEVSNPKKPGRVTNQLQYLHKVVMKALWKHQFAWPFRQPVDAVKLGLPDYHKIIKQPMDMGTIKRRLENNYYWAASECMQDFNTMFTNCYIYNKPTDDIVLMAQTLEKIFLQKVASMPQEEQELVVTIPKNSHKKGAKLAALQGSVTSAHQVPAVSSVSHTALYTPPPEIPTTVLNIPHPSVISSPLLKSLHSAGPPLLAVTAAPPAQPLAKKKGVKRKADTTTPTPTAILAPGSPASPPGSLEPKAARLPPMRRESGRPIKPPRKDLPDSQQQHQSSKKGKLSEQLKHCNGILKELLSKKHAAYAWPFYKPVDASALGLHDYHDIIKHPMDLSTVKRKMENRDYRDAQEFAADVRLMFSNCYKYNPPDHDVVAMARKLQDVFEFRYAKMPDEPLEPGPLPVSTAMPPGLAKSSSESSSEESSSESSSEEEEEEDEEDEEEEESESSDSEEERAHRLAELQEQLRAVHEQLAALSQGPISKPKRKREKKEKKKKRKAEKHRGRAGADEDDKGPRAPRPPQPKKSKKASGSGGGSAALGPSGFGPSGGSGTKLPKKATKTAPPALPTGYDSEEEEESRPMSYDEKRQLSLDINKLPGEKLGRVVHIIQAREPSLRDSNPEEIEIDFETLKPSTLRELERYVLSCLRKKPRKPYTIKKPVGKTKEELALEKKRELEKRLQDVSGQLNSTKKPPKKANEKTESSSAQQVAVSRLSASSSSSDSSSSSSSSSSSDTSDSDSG
Sequence of Histone acetyltransferase KAT2B (Homo sapiens) (Q92831 whole entry, looked up): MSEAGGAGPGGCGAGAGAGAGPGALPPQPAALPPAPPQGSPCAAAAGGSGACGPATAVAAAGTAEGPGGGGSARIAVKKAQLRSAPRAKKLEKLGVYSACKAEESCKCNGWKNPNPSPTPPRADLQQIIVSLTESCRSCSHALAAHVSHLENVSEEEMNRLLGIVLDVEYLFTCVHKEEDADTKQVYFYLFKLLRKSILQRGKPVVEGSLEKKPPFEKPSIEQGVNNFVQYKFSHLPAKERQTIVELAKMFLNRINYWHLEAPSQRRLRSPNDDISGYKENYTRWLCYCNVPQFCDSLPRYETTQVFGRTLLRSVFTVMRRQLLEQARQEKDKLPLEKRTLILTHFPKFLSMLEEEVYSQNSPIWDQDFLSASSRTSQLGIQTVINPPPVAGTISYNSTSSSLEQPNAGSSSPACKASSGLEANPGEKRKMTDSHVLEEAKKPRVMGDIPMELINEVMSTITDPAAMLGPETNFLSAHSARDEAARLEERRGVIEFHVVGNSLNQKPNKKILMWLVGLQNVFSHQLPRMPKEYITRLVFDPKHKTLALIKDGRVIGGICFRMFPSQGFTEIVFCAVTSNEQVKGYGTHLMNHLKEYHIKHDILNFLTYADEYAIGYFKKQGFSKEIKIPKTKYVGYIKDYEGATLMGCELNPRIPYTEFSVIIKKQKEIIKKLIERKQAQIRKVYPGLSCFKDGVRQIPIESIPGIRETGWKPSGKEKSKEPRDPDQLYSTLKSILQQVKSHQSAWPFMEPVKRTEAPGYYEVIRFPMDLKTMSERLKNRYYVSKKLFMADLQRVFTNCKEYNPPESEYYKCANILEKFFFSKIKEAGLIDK
Sequence of Bromodomain-containing protein 1 (Homo sapiens) (O95696 whole entry): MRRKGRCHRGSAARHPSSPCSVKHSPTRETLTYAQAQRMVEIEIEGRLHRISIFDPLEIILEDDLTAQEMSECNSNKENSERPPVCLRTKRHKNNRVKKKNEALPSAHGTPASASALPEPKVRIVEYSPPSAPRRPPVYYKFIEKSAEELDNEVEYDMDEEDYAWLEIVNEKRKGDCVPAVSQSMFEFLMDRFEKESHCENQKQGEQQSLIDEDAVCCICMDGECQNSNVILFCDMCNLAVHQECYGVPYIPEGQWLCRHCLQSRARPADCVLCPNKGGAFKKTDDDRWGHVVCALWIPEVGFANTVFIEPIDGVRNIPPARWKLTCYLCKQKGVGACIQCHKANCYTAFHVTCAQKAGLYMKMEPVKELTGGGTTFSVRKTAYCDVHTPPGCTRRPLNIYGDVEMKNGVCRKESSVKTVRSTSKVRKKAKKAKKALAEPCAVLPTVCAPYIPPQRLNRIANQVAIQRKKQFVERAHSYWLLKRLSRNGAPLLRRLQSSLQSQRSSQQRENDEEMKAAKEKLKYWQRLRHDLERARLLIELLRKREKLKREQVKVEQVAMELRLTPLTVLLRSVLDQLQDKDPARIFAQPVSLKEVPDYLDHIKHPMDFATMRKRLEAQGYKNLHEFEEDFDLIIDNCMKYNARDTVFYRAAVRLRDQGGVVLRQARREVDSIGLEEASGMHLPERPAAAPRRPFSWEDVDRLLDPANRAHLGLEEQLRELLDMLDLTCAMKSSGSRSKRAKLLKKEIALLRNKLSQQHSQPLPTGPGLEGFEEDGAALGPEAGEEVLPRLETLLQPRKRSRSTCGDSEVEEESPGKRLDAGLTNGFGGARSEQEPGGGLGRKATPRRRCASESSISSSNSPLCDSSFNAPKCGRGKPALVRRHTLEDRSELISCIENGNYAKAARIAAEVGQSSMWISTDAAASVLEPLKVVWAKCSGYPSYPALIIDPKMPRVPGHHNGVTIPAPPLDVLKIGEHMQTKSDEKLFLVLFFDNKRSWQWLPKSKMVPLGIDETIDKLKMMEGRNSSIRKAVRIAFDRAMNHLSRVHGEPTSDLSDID

## COc1ccccc1S(=O)(=O)Nc1ccc2c(c1)CN(C)C(=O)N2
[1]
  ΔTm: 3.99 °C and 5.24 °C
[2]
  ΔTm: 0.75 °C
[3]
  ΔTm: 1.03 °C
[4]
  ΔTm: 0.42 °C
[5]
  ΔTm: -0.34 °C
[6]
  ΔTm: 0.71 °C
[7]
  ΔTm: 0.1 °C
[8]
  ΔTm: 1.62 °C
[9]
  ΔTm: 1.02 °C
[10]
  ΔTm: 0.66 °C and 0.25 °C
[11]
  ΔTm: 0.44 °C
[12]
  ΔTm: 1.19 °C and 0.62 °C
[13]
  ΔTm: 4.61 °C and 3.1 °C
[14]
  ΔTm: 5.32 °C
[15]
  ΔTm: 4.59 °C and 5.45 °C
[16]
  ΔTm: 1.96 °C
[17]
  ΔTm: 2.08 °C
[18]
  ΔTm: 2.42 °C
[19]
  ΔTm: 1.72 °C
[20]
  ΔTm: 0.16 °C
[21]
  ΔTm: -0.22 °C
[22]
  ΔTm: 2.09 °C and 2.66 °C
[23]
  ΔTm: 2.71 °C
[24]
  ΔTm: 0.43 °C
[25]
  ΔTm: -0.1 °C and 0.81 °C
[26]
  ΔTm: 0.83 °C and -0.18 °C
[27]
  ΔTm: -0.18 °C
[28]
  ΔTm: 0.62 °C
[29]
  ΔTm: 0.99 °C
[30]
  ΔTm: 1.07 °C
[31]
  ΔTm: 0.49 °C
[32]
  ΔTm: 0.51 °C
[33]
  ΔTm: 0.1 °C
[34]
  ΔTm: 0.12 °C
[35]
  ΔTm: -0.08 °C
[36]
  ΔTm: 0.62 °C
[37]
  ΔTm: 0.52 °C
[38]
  ΔTm: 0.78 °C
[39]
  ΔTm: 0.57 °C
[40]
  ΔTm: 0.29 °C
[41]
  ΔTm: 0.68 °C
